Measurements reported in the NIST ThermoML archive (doi:10.1021/je101173w).
± gives the expanded uncertainty stated by the source.

What was measured:
[1] = 101.33 kPa, Liquid; for viscosity: Capillary tube (Ostwald / Ubbelohde) method; for mass density: Vibrating tube method
[2] = mn = molality of the nth substance listed, in mol/kg; conditions: 101 kPa, Liquid; for viscosity: Capillary tube (Ostwald / Ubbelohde) method; for mass density: Vibrating tube method

CCO [ethanol]
[1]
Conditions | mass density [kg/m3] | viscosity [mPa·s]
293.15 K | 790.08 ± 0.15 | 1.211 ± 0.0075
303.15 K | 781 ± 0.16 | 0.9977 ± 0.0063
313.15 K | 772.31 ± 0.16 | 0.8319 ± 0.0054
323.15 K | 763.35 ± 0.16 | 0.6876 ± 0.0046
333.15 K | 754.2 ± 0.16 | 0.5806 ± 0.004

Oc1cccc(O)c1 [1,3-benzenediol] + CCO
[2]
Conditions | mass density, m1 = 1.634 [kg/m3] | mass density, m1 = 3.537 [kg/m3] | mass density, m1 = 5.77 [kg/m3] | mass density, m1 = 8.441 [kg/m3] | mass density, m1 = 11.69 [kg/m3] | viscosity, m1 = 1.634 [mPa·s] | viscosity, m1 = 3.537 [mPa·s] | viscosity, m1 = 5.77 [mPa·s] | viscosity, m1 = 8.441 [mPa·s] | viscosity, m1 = 11.69 [mPa·s]
293.15 K | 847.02 ± 0.14 | 897.16 ± 0.13 | 941.64 ± 0.12 | 981.15 ± 0.12 | 1017.03 ± 0.12 | 2.136 ± 0.013 | 3.742 ± 0.022 | 6.373 ± 0.035 | 11.33 ± 0.059 | 21.33 ± 0.1
303.15 K | 838.53 ± 0.14 | 889.03 ± 0.13 | 933.72 ± 0.12 | 973.42 ± 0.12 | 1007.47 ± 0.12 | 1.707 ± 0.01 | 3.078 ± 0.018 | 4.872 ± 0.028 | 8.487 ± 0.046 | 15.56 ± 0.078
313.15 K | 830.12 ± 0.15 | 880.71 ± 0.13 | 925.87 ± 0.13 | 965.64 ± 0.12 | 1002.06 ± 0.11 | 1.421 ± 0.0087 | 2.294 ± 0.014 | 3.648 ± 0.022 | 5.94 ± 0.034 | 9.505 ± 0.051
323.15 K | 821.65 ± 0.15 | 872.63 ± 0.14 | 918.18 ± 0.13 | 957.95 ± 0.12 | 994.49 ± 0.11 | 1.265 ± 0.0079 | 1.947 ± 0.012 | 2.864 ± 0.017 | 4.295 ± 0.025 | 6.578 ± 0.036

Oc1cccc(O)c1 [1,3-benzenediol] + O
[2]
Conditions | mass density, 293.15 K [kg/m3] | mass density, 303.15 K [kg/m3] | mass density, 313.15 K [kg/m3] | mass density, 323.15 K [kg/m3] | mass density, 333.15 K [kg/m3] | viscosity, 293.15 K [mPa·s] | viscosity, 303.15 K [mPa·s] | viscosity, 313.15 K [mPa·s] | viscosity, 323.15 K [mPa·s] | viscosity, 333.15 K [mPa·s]
m1 = 2.361 | 1041.62 ± 0.11 | 1037.63 ± 0.11 | 1032.94 ± 0.11 | 1027.74 ± 0.11 | 1021.98 ± 0.11 | 1.615 ± 0.0096 | 1.25 ± 0.0076 | 1.012 ± 0.0063 | 0.8329 ± 0.0053 | 0.6974 ± 0.0046
m1 = 4.819 | 1073.42 ± 0.12 | 1068.64 ± 0.12 | 1062.96 ± 0.12 | 1057.26 ± 0.12 | 1050.76 ± 0.12 | 2.481 ± 0.014 | 1.874 ± 0.011 | 1.474 ± 0.0089 | 1.181 ± 0.0073 | 0.9741 ± 0.0061
m1 = 7.567 | 1099.32 ± 0.13 | 1093.72 ± 0.13 | 1087.57 ± 0.12 | 1081.27 ± 0.12 | 1074.55 ± 0.12 | 3.681 ± 0.021 | 2.72 ± 0.016 | 2.089 ± 0.012 | 1.629 ± 0.0098 | 1.311 ± 0.0081
m1 = 10.59 | 1120.13 ± 0.13 | 1113.97 ± 0.13 | 1107.55 ± 0.13 | 1100.86 ± 0.13 | 1094.26 ± 0.13 | 5.347 ± 0.03 | 3.844 ± 0.022 | 2.867 ± 0.017 | 2.193 ± 0.013 | 1.727 ± 0.01
m1 = 13.9 | 1137.42 ± 0.14 | 1130.96 ± 0.14 | 1124.23 ± 0.14 | 1117.62 ± 0.13 | 1110.53 ± 0.13 | 7.61 ± 0.04 | 5.36 ± 0.03 | 3.9 ± 0.023 | 2.909 ± 0.017 | 2.247 ± 0.013

Oc1cccc(O)c1 [1,3-benzenediol] + CCCCO
[2]
Conditions | mass density, 293.15 K [kg/m3] | mass density, 303.15 K [kg/m3] | mass density, 313.15 K [kg/m3] | mass density, 323.15 K [kg/m3] | mass density, 333.15 K [kg/m3] | viscosity, 293.15 K [mPa·s] | viscosity, 303.15 K [mPa·s] | viscosity, 313.15 K [mPa·s] | viscosity, 323.15 K [mPa·s] | viscosity, 333.15 K [mPa·s]
m1 = 1.016 | 844.32 ± 0.16 | 836.69 ± 0.16 | 828.92 ± 0.16 | 821.01 ± 0.16 | 812.92 ± 0.16 | 4.518 ± 0.027 | 3.357 ± 0.021 | 2.54 ± 0.016 | 1.972 ± 0.012 | 1.674 ± 0.011
m1 = 2.196 | 878.29 ± 0.15 | 870.07 ± 0.15 | 862.36 ± 0.15 | 854.51 ± 0.15 | 846.52 ± 0.15 | 7.007 ± 0.039 | 5.06 ± 0.03 | 3.71 ± 0.023 | 2.809 ± 0.017 | 2.33 ± 0.014
m1 = 3.586 | 910.51 ± 0.14 | 902.98 ± 0.14 | 895.33 ± 0.14 | 887.57 ± 0.14 | 879.68 ± 0.15 | 11.56 ± 0.061 | 8.021 ± 0.044 | 5.552 ± 0.033 | 4.091 ± 0.025 | 3.274 ± 0.02
m1 = 5.247 | 942.6 ± 0.13 | 935.1 ± 0.13 | 927.53 ± 0.13 | 919.86 ± 0.14 | 912.09 ± 0.14 | 19.75 ± 0.1 | 12.64 ± 0.066 | 8.601 ± 0.047 | 6.096 ± 0.035 | 4.84 ± 0.029
m1 = 7.265 | 974.13 ± 0.13 | 966.7 ± 0.13 | 959.2 ± 0.13 | 951.6 ± 0.13 | 943.92 ± 0.13 | 34.34 ± 0.17 | 20.69 ± 0.11 | 13.18 ± 0.069 | 8.804 ± 0.048 | 6.635 ± 0.037

Oc1cccc(O)c1 [1,3-benzenediol] + CCCO
[2]
Conditions | mass density, 293.15 K [kg/m3] | mass density, 303.15 K [kg/m3] | mass density, 313.15 K [kg/m3] | mass density, 323.15 K [kg/m3] | mass density, 333.15 K [kg/m3] | viscosity, 293.15 K [mPa·s] | viscosity, 303.15 K [mPa·s] | viscosity, 313.15 K [mPa·s] | viscosity, 323.15 K [mPa·s] | viscosity, 333.15 K [mPa·s]
m1 = 1.252 | 846.41 ± 0.15 | 838.23 ± 0.16 | 830.12 ± 0.16 | 821.85 ± 0.16 | 813.35 ± 0.16 | 3.605 ± 0.022 | 2.74 ± 0.017 | 2.133 ± 0.013 | 1.675 ± 0.011 | 1.374 ± 0.0088
m1 = 2.709 | 886.87 ± 0.14 | 878.7 ± 0.15 | 870.62 ± 0.15 | 862.49 ± 0.15 | 854.18 ± 0.15 | 6.043 ± 0.035 | 4.375 ± 0.026 | 3.292 ± 0.02 | 2.465 ± 0.015 | 1.952 ± 0.012
m1 = 4.423 | 924.61 ± 0.14 | 916.62 ± 0.14 | 908.69 ± 0.14 | 900.65 ± 0.14 | 892.48 ± 0.14 | 10.37 ± 0.056 | 7.225 ± 0.041 | 5.137 ± 0.031 | 3.736 ± 0.023 | 2.862 ± 0.018
m1 = 6.471 | 960.5 ± 0.13 | 952.55 ± 0.13 | 944.74 ± 0.13 | 936.83 ± 0.13 | 928.84 ± 0.13 | 18.52 ± 0.096 | 12.05 ± 0.064 | 8.179 ± 0.045 | 5.696 ± 0.033 | 4.195 ± 0.025
m1 = 8.959 | 994.1 ± 0.12 | 986.39 ± 0.12 | 978.72 ± 0.12 | 970.97 ± 0.13 | 963.1 ± 0.13 | 33.22 ± 0.16 | 20.29 ± 0.1 | 12.82 ± 0.068 | 8.199 ± 0.045 | 6.412 ± 0.036
